# Laboratory results as given in article PMC8708751, “Hit Identification of a Novel Quinazoline Sulfonamide as a Promising EphB3 Inhibitor: Design, Virtual Combinatorial Library, Synthesis, Biological Evaluation, and Docking Simulation Studies” (Pharmaceuticals, 2021).
# Like-named read-outs stand apart in the source and are kept apart here.
# Legend:
# [1] = molecular target: T1, EphB3 kinase (Homo sapiens, UniProt P54753); test: EphB3 kinase inhibition assay (HotSpot); assay type: biochemical; conditions: EphB3 kinase, 10 µM compound, 10 µM ATP; read-out: Average % Enzyme Inhibition at 10 µM (Relative to DMSO Control)
# T1 construct: purchased Reaction Biology Co. (Kinase HotSpot service)
# T1 sequence (P54753 34-998): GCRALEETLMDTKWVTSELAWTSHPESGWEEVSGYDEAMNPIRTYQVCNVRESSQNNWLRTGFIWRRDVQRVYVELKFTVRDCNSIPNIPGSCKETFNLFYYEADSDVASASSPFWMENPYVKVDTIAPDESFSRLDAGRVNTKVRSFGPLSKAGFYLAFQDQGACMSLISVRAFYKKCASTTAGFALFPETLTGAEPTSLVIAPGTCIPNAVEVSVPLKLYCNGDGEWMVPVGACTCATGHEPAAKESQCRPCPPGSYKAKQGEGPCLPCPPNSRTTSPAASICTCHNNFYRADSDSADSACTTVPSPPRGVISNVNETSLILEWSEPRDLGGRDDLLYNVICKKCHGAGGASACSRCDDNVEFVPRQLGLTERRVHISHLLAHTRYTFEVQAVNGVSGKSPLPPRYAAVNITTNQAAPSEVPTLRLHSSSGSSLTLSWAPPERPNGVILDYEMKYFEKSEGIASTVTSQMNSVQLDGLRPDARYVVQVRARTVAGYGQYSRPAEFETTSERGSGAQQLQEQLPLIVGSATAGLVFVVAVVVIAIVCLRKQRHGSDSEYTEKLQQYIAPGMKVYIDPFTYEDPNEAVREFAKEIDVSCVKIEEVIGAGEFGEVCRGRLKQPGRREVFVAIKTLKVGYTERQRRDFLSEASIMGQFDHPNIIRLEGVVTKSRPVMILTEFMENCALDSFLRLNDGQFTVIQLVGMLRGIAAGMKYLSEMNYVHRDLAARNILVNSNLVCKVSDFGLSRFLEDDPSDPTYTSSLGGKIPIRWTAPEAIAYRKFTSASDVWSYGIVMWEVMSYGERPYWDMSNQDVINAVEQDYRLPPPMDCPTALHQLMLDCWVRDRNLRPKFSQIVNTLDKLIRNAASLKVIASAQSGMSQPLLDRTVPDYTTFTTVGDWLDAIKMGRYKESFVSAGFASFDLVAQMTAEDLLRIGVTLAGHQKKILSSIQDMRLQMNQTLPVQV
# Procedure: The synthesized compounds were subjected to in vitro screening over EphB3 kinase. A single dose of 10 µM concentration of each target compound was used in EphB3 kinase inhibition assay, at 10 µM ATP, applying HotSpot^SM technology.
# The HotSpot assay platform contains specific kinase/substrate pairs along with required cofactors. Base reaction buffer: 20 mM Hepes (pH 7.5), 10 mM MgCl2, 1 mM EGTA, 0.02% Brij35, 0.02 mg/mL BSA, 0.1 mM Na3VO4, 2 mM DTT, 1% DMSO. The tested compounds were dissolved in 100% DMSO to specific concentration. The serial dilution was conducted by Integra Viaflo Assist in DMSO (Sigma-Aldrich, Burlington, MA, USA). The reaction mixture containing the examined compound and 33P-ATP was incubated at room temperature for 2 h, and radioactivity was detected by filter-binding method. Kinase activity data were expressed as the percent remaining kinase activity in test samples compared to vehicle (dimethyl sulfoxide) reactions. IC50 values and curve fits were obtained using Prism (GraphPad Software, San Diego, CA, USA).
# [2] = molecular target: T2, EGFR kinase (Homo sapiens, UniProt P00533); test: EGFR kinase inhibition assay (HotSpot); assay type: biochemical; conditions: for inhibition at 10 µM / Average % Enzyme Inhibition (Relative to DMSO Controls) at 10 µM: 10 µM compound; for inhibition at 10 µM: 10 µM ATP as printed, read-out: Average % Enzyme Inhibition (Relative to DMSO Controls) at 10 µM; for Average % Enzyme Inhibition (Relative to DMSO Controls) at 10 µM: 10 M [sic] ATP
# T2 construct: purchased Reaction Biology Co. (Kinase HotSpot service)
# T2 sequence (P00533 25-1210): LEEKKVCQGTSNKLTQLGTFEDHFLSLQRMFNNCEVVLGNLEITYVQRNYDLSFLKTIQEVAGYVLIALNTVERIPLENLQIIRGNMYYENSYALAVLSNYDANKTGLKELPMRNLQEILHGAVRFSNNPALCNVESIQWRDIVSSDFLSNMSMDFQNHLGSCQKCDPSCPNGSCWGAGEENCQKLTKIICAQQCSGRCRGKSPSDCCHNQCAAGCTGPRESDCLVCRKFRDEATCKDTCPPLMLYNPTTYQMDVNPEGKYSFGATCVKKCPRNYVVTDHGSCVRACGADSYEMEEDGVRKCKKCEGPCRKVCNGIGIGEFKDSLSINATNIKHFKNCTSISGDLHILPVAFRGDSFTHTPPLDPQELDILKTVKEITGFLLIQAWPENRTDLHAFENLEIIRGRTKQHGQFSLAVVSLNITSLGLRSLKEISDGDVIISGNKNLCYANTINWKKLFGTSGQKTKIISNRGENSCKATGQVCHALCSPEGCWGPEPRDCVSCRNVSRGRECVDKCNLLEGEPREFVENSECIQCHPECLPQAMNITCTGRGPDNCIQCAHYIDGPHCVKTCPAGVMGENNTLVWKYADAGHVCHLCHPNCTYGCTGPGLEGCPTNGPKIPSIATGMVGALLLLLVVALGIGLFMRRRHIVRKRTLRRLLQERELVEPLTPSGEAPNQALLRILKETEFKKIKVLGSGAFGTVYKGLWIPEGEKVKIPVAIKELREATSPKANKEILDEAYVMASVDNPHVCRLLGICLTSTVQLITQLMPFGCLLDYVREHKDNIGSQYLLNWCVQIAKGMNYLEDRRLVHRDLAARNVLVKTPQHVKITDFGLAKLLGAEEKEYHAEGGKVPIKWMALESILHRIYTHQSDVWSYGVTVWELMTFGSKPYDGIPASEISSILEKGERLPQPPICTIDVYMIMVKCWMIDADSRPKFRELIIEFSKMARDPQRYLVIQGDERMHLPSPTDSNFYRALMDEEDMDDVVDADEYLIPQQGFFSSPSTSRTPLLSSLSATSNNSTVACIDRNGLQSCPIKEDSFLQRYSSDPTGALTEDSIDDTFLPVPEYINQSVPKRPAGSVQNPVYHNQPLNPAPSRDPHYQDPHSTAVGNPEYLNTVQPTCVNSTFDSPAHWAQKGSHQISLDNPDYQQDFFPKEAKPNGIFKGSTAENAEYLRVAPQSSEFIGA
# [3] = EGFR kinase, dose dependent assay, read-out: IC50
# [4] = EGFR, read-out: EC50 of the curve fit printed in Figure 6 (IC50 per legend)
inhibition at 10 µM [1] [%],inhibition at 10 µM ([2]; EGFR kinase) [%],melting point [°C],Average % Enzyme Inhibition (Relative to DMSO Controls) at 10 µM ([2]; EGFR kinase) [%],"IC50 [2, 3] [nM]","IC50 [2, 4] [nM]",Compound
25.81 ± 0.24,0.56 ± 4.32,315.1 to 316.2,,,,"NS(=O)(=O)c1ccc(Nc2ncnc3ccc(-c4cccnc4)cc23)cc1 [Compound 4a, 4-((6-(Pyridin-3-yl)quinazolin-4-yl)amino)benzenesulfonamide]"
26.7 ± 0.45,25.2 ± 1.25,,,,,"NS(=O)(=O)c1ccc(Nc2ncnc3ccc(-c4ccc(C=O)o4)cc23)cc1 [Compound 4b, 4-((6-(5-Formylfuran-2-yl)quinazolin-4-yl)amino)benzenesulfonamide]"

# More lines, now with the values behind:
Compound,inhibition at 10 µM [1] [%],inhibition at 10 µM ([2]; EGFR kinase) [%],melting point [°C],Average % Enzyme Inhibition (Relative to DMSO Controls) at 10 µM ([2]; EGFR kinase) [%],"IC50 [2, 3] [nM]","IC50 [2, 4] [nM]"
"NS(=O)(=O)c1ccc(Nc2ncnc3ccc(Br)cc23)cc1 [Compound 3a, 4-((6-Bromoquinazolin-4-yl)amino)benzenesulfonamide]",26.97 ± 0.24,-13.2 ± 4.31,322.2 to 324.5,,,
"NS(=O)(=O)c1ccc(Nc2ncnc3cc(-c4ccc(CN5CCOCC5)cc4)ccc23)cc1 [Compound 4d, 4-((7-(4-(Morpholinomethyl)phenyl)quinazolin-4-yl)amino)benzenesulfonamide]",18.9 ± 1.09,> 50,228.1 to 229.8,65.76 ± 0.98,2760,2760
"NS(=O)(=O)c1cccc(Nc2ncnc3cc(-c4cccc(CN5CCOCC5)c4)ccc23)c1 [Compound 4e, 3-((7-(3-(Morpholinomethyl)phenyl)quinazolin-4-yl)amino)benzenesulfonamide]",-21.35 ± 0.09,> 50,267.5 to 269,63.28 ± 0.21,1060,1060
"NS(=O)(=O)c1cccc(Nc2ncnc3ccc(-c4cccnc4)cc23)c1 [Compound 4f, 3-((6-(Pyridin-3-yl)quinazolin-4-yl)amino)benzenesulfonamide]",23.5 ± 5.36,4.57 ± 2.16,320 to 321.5,,,
